From patent publication US8702939B2, “Electrotaxis methods and devices” (McMaster University, priority 2010, dated 2014) come the findings set out here.

Common to all, as to format: in vivo, Caenorhabditis elegans
In series [1] the test system is C. elegans. As to the kind of experiment: microfluidic electrotaxis assay of toxin/drug-exposed worms (U-turn, head movement, speed). The conditions noted are these: for movement speed response of toxin-treated animals: abnormal = slower than 215 μm/sec, 3V/cm. The procedure:
The toxins 6-OHDA (catalog no. 162957), Rotenone (catalog no. R8875) and Acetaminophen (catalog no. A7085) were obtained from Sigma Aldrich. MPTP (M325913) was from Toronto Research Chemicals. […] 6-OHDA solution is sensitive to light and therefore it was kept in the dark. A stock solution of Acetaminophen (10 mM) was prepared and stored at −20° C. At the time of toxin assay, the stock solution was diluted to 100 μM final concentration.
(§1) All assays with toxins were done using L1 stage worms. Synchronized L1 worms were exposed to toxin solutions for different time periods with mild shaking on a rotating platform. At the end of the time period, tubes were briefly centrifuged to remove drug solution and worm pellets were diluted with […] and were plated on normal NG agar plates.
(§2) Experimental design was as described Rezai et al., ibid. Electric field was fixed at 3V/cm. Then, the direction of the electric field was changed and the worm was allowed to move the same distance in the opposite direction. The movement of each worm was recorded using a Nikon Coolpix P5100, NY, USA. The captured videos were analyzed using the ImageJ NIH image module. Three parameters—U-turn, head movement and speed—were used to characterize the behaviour of animals. For U-turn, the time (in seconds) that was taken by a moving worm to come to a stop and turn to the opposite direction after the electric field direction was reversed was recorded. Most wild type worms (˜90%, see results) were able to change direction in less than 10 seconds. Worms taking 10 sec or longer were considered to have an abnormal response. For the head movement analysis, the number of full sine waves (i.e., spanning up to three-fourth of the channel width) that a worm makes within a 30 sec. duration were determined. Wild-type worms make full sine waves in majority of cases with failures typically being less than 25%. Therefore, a threshold of 25% to place a worm in normal or abnormal category was used. […] To analyze speed, the time taken by a worm to move a distance of 5000 μm in a given direction was used. Speed was measured in both directions of movement and the average value was used as a true response. Wild type animals typically moved with a speed of 215 μm/sec and above. Therefore, animals moving slower than 215 μm/sec were considered to have an abnormal response.

In series [2] the test system is C. elegans. Particulars: for movement defects on plate: lowered concentration and exposure time, slow reaction when touched on head or tail. The procedure: as §1
These phenotypes are in agreement with published studies.

For series [3], the system named is DA neurons. Description: toxin-induced degeneration of DA neurons in dat-1p::yfp transgenic animals. The text has this:
In some cases, the entire dendritic processes were missing.

For series [4], the system named is C. elegans. Description: channel-based drug-screening assay: acetaminophen pre-treatment against neurotoxins (electrotaxis). How it is done:
The toxins 6-OHDA (catalog no. 162957), Rotenone (catalog no. R8875) and Acetaminophen (catalog no. A7085) were obtained from Sigma Aldrich. MPTP (M325913) was from Toronto Research Chemicals. Desired concentrations of 6-OHDA (100 μM), MPTP (700 μM) and Rotenone (25 μM) were prepared in M9 one day before the assay and stored at −20° C. 6-OHDA solution is sensitive to light and therefore it was kept in the dark. A stock solution of Acetaminophen (10 mM) was prepared and stored at −20° C. At the time of toxin assay, the stock solution was diluted to 100 μM final concentration.
as §2
In order to establish a baseline to screen for neuroprotective compounds in a channel-based assay, the neuroprotective effect of acetaminophen (a known analgesic) against neurodegeneration caused by toxinsas tested.
Pre-treatment of worms with acetaminophen (100 uM, 24 hrs exposure during L1 stage) prior to treatment with 6-0H DA as above, conferred a significant protection on the worms as evidenced by the electrotactic response of worms using all 3 movement parameters described above. The protection ranged from 30% to 50% (FIG. 34). […] The defect in head movement was decreased by 40% and U-turn by 30%. The impact of Acetaminophen on Rotenone-induced neuronal toxicity and provide first evidence that Acetaminophen protects DA neurons from the toxic effects of Rotenone. While the head movement defect was decreased by 20%, abnormalities in U-turn response and speed were lower by 50% and 38%, respectively.

`NCCc1cc(O)c(O)cc1O` [6-OHDA, 6-hydroxydopamine]: the “electrotactic response in channel” value in series [1] (100 μM 6-OHDA for as little as 30 min) is “abnormal electrotactic response”; in series [1] (5 mM 6-OHDA treated L1 animals), “practically immobile and unresponsive to the electric field stimulus”. The “U-turn defect, proportion of worms” value in series [1] (6-OHDA 100 μM, within 4 hour exposure of L1 worms, electric field 3V/cm, abnormal = 10 sec or longer) is on record as 30-80%. Besides, the “defective head movement response, proportion of worms” value was “about one-third” in series [1] (6-OHDA, 30 minutes toxin exposure) and 61% in series [1] (6-OHDA, 4 hour exposure). The “defective head movement response, proportion of animals” value in series [1] (6-OHDA, 1 hr exposure) came out at 50%. In addition, in series [1], the “movement speed response of toxin-treated animals” value was “most defective response compared to the other 2 toxins”. Moreover, the “phenotype of treated L1 animals” value in series [2] (5 mM 6-OHDA) is “extreme sluggishness, uncoordinated movement, protruding vulva, growth arrest and early larval lethality”. The “weak uncoordinated phenotype, proportion of worms (plate)” value in series [2] (6-OHDA, 30 min exposure) is “one-quarter”. The “morphological defects on plate” value in series [2] (6-OHDA, 4 hr exposure) is “morphological defects such as protruding vulva (Pvl)”. Also, the “uncoordinated phenotype, proportion of animals (plate)” value in series [2] (6-OHDA, 4 hr exposure) is 86%. Moreover, the “degeneration of DA neurons” value in series [3] (6-OHDA 100 μM for 4 hours) was “did not cause an obvious degeneration of DA neurons”. In series [3] (6-OHDA 100 μM, longer exposure ~71 hrs), the “animals with DA neuron (CEP dendritic process) defects” value worked out at 15%.
Take `CN1CC=C(c2ccccc2)CC1` [MPTP, 1-methyl 4-phenyl 1,2,3,6-tetrahydropyridine]: in series [1] (700 μM MPTP for up to 8 hrs), the “electrotactic response in channel” value was “obvious defects in the channel assay”. Moreover, the “head movement defects, proportion of worms” value in series [1] (MPTP, 4 hr exposure) amounted to 80%. In addition, the “movement speed response of toxin-treated animals” value in series [1] is given as “wild type response in all 3 conditions tested”. Further, the “appearance on NG agar plates” value in series [2] (700 μM MPTP for up to 8 hrs) is “fairly active and healthy”. Besides, the “phenotype of treated L1 worms” value in series [2] (1.4 mM MPTP for 3 days) is “almost completely uncoordinated and paralyzed”. The “movement defects on plate” value in series [2] is “only subtle and low penetrant movement defects”.
Take `C=C(C)[C@H]1Cc2c(ccc3c2O[C@@H]2COc4cc(OC)c(OC)cc4[C@@H]2C3=O)O1` [Rotenone]: the “electrotactic movement” value in series [1] (25 μM Rotenone for 1-8 hr) was “abnormal electrotactic movement”. For the same compound, the “defect in the speed of animals” value in series [1] (Rotenone exposure) is on record as 48%. In series [1] (Rotenone, after 8 hrs of toxin exposure), the “abnormal head movement response, proportion of worms” value is recorded as “up to 30%”. Moreover, in series [2] (25 μM Rotenone for 1-8 hr), the “appearance on the plate” value is on record as “largely healthy”. Besides, the “morphology of exposed worms” value in series [2] (25 μM rotenone for less than 12 hrs) is on record as “morphological defects similar to MPTP”. In series [2], the “movement defects on plate” value is “only subtle and low penetrant movement defects”.
Consider `CC(=O)Nc1ccc(O)cc1` [acetaminophen], for which, in series [4] (MPTP), the “decrease of U-turn defect” value is given as 30% and the “decrease of head movement defect” value was 40%. In series [4] (Rotenone), the “decrease of abnormalities in U-turn response” value is 50%, the “decrease of abnormalities in speed” value came out at 38% and the “decrease of head movement defect” value is given as 20%.
Regarding `c1ccc([C@H]2CN3CCSC3=N2)cc1` [levamisole], in series [1] (10 μM levamisole, only 5 worms tested), the “movement response in microfluidic channel” value is given as “reduced movement”.
